The values below are quoted from earlier work in patent US20060121016A1, “Methods and compositions for treatment of free radical injury” (priority 2004, published 2006).

For the data set the following is noted: administered both before and after the operation.

As for `Oc1ncnc2[nH]ncc12` [allopurinol], the “Reduction of incidence of complication following surgery” value is listed as 70%.
